Source: patent US10670605B2, “Cysteine reactive probes and uses thereof” (The Scripps Research Institute, priority 2015, dated 2020)
Values belong to the compound of their own block, whether it stands above or below them.

Tests used:
Assay in all cases: Competitive isoTOP-ABPP in situ (fragment-treated cells)
Format in all cases: cell-based
[1] = target: T1, cysteines in MDA-MB-231 and Ramos cells (Homo sapiens, UniProt P51946)
T1 sequence (P51946 1-323): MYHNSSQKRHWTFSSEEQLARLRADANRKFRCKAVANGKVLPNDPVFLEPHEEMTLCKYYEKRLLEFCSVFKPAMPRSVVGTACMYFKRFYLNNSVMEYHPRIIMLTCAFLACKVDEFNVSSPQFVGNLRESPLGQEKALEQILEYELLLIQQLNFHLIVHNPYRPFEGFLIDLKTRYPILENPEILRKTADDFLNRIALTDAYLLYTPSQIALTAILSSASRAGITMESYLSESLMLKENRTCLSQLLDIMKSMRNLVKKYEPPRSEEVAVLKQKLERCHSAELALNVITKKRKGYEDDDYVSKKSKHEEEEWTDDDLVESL

[2] = target: T2, cysteines in MDA-MB-231 and Ramos cells (Homo sapiens, UniProt Q13428)
T2 sequence (Q13428 1-1488): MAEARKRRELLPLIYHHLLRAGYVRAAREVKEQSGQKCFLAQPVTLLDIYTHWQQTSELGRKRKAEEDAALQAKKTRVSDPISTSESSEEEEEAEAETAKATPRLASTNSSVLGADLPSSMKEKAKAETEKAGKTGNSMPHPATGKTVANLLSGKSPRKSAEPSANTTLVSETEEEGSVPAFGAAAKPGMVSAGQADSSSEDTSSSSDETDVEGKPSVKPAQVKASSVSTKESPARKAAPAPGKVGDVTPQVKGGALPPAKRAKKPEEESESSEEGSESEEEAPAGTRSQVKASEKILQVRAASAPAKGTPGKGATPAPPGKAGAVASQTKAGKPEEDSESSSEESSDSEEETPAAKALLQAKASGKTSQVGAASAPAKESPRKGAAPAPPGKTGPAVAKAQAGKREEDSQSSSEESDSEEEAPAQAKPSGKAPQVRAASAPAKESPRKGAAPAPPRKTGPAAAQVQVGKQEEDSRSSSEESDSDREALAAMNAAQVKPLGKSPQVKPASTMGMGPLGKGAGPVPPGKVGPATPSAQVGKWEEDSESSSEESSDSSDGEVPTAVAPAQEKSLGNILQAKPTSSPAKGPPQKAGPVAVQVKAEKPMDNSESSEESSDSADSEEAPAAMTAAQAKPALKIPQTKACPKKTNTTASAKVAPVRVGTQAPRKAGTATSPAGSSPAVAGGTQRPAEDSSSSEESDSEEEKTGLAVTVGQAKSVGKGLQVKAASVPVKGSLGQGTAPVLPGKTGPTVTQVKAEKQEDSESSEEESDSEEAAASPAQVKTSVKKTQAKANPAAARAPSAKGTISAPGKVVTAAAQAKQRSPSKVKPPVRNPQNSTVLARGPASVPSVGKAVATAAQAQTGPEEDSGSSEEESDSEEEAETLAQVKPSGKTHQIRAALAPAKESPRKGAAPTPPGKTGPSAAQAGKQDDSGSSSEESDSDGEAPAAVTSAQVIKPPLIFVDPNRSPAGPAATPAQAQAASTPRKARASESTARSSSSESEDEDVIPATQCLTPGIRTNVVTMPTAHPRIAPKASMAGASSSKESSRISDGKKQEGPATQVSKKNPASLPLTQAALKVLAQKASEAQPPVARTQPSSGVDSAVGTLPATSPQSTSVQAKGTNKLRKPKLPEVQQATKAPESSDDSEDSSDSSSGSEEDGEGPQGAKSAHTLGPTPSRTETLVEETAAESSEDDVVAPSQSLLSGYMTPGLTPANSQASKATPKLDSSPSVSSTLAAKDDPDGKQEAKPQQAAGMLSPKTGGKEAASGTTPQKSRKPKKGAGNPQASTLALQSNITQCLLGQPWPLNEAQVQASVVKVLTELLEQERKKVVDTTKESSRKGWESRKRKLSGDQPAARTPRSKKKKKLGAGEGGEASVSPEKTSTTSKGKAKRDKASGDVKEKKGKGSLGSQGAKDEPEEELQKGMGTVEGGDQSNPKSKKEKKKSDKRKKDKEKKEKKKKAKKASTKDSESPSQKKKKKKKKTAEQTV

[3] = target: cysteines in MDA-MB-231 and Ramos cells (Homo sapiens, UniProt O00299)
[4] = target: T3, cysteines in MDA-MB-231 and Ramos cells (Homo sapiens, UniProt Q9NVC6)
T3 sequence (Q9NVC6 1-651): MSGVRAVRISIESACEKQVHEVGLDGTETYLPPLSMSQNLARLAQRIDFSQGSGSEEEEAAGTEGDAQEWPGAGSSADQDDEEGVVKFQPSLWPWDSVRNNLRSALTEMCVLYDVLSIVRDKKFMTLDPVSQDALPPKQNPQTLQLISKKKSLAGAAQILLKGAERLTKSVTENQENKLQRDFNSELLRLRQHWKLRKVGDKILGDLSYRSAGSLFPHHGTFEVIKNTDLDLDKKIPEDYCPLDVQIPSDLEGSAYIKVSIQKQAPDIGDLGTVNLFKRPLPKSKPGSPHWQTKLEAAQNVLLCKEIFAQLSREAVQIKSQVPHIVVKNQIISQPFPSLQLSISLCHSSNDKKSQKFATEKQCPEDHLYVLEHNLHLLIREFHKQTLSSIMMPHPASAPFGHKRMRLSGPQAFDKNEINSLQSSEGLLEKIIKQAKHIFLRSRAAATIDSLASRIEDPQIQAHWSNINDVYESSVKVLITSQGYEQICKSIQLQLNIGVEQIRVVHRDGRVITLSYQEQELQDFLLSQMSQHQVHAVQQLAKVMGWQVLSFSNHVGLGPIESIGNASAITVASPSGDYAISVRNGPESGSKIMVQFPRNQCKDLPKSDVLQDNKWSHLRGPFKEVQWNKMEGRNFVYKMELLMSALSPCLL

[5] = target: T4, cysteines in MDA-MB-231 and Ramos cells (Homo sapiens, UniProt O95571)
T4 sequence (O95571 8-254): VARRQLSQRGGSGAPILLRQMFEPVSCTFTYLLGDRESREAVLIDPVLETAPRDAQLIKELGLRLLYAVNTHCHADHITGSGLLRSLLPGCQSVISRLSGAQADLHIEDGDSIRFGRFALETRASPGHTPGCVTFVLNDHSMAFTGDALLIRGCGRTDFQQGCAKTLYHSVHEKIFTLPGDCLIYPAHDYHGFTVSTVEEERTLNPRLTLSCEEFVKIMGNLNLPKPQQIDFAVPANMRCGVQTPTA

[6] = target: cysteines in MDA-MB-231 and Ramos cells (Homo sapiens, UniProt Q7Z2W4)
Chain of cysteines in MDA-MB-231 and Ramos cells (Homo sapiens, UniProt Q7Z2W4) (Q7Z2W4 whole entry): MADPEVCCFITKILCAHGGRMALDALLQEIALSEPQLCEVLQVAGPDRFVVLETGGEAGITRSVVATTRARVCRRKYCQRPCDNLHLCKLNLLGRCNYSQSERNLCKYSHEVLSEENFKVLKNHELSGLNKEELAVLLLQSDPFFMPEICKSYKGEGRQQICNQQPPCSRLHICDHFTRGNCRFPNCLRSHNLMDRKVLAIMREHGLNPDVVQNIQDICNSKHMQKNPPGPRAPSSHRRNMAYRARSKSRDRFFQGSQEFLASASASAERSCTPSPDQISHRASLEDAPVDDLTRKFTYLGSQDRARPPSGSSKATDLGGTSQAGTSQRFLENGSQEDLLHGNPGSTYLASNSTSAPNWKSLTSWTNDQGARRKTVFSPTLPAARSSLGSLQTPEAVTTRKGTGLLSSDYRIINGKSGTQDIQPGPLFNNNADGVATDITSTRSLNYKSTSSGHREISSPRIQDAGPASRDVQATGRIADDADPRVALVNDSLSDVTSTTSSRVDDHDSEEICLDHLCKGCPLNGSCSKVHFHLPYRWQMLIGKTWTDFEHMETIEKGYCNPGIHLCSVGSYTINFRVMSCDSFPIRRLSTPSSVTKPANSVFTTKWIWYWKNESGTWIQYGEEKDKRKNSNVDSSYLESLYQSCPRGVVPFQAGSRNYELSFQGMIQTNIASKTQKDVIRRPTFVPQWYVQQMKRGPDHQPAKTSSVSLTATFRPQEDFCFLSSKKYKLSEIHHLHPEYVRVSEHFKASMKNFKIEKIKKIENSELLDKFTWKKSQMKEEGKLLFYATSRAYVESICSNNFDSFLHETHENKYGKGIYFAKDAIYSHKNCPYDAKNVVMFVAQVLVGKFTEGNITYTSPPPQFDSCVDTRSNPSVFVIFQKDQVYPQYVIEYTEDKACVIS

Compound: COc1ccc2c(c1)CCCN2C(=O)CCl [compound 2]
isoTOP-ABPP reactivity P51946_C244 CCNH ([1]; 200 μM, insitu, 231): 1.9
isoTOP-ABPP reactivity Q13428_C38 TCOF1 ([2]; 200 μM, insitu, 231): 3.3
isoTOP-ABPP reactivity Q13428_C1298 TCOF1 ([2]; 200 μM, insitu, 231): 4.7
isoTOP-ABPP reactivity O00299_C24 CLIC1 ([3]; 200 μM, insitu, 231): 9.5
isoTOP-ABPP reactivity Q9NVC6_C649 MED17 ([4]; 200 μM, insitu, 231): 7.7
isoTOP-ABPP reactivity O95571_C170 ETHE1 ([5]; 200 μM, insitu, 231): 3.8

Compound: COc1ccc(C2CC(c3cccs3)=NN2C(=O)CCl)cc1 (stereo not shown) [compound 4]
isoTOP-ABPP reactivity P51946_C244 CCNH ([1]; 100 μM in situ 231): 5.3
isoTOP-ABPP reactivity Q7Z2W4_C645 ZC3HAV1 ([6]; 100 μM in situ 231): 4.4
isoTOP-ABPP reactivity Q13428_C38 TCOF1 ([2]; 100 μM in situ 231): 2.8
isoTOP-ABPP reactivity Q13428_C1298 TCOF1 ([2]; 100 μM in situ 231): 5.6
isoTOP-ABPP reactivity O00299_C24 CLIC1 ([3]; 100 μM in situ 231): 20.0
isoTOP-ABPP reactivity Q9NVC6_C649 MED17 ([4]; 100 μM in situ 231): 1.7
isoTOP-ABPP reactivity O95571_C170 ETHE1 ([5]; 100 μM in situ 231): 2.3

Compound: COc1cc2c(cc1OC)CN(C(=O)CCl)CC2 [compound 8]
isoTOP-ABPP reactivity Q7Z2W4_C645 ZC3HAV1 ([6]; 200 μM, insitu, 231): 5.1
isoTOP-ABPP reactivity Q13428_C38 TCOF1 ([2]; 200 μM, insitu, 231): 2.0
isoTOP-ABPP reactivity Q13428_C1298 TCOF1 ([2]; 200 μM, insitu, 231): 20.0
isoTOP-ABPP reactivity O00299_C24 CLIC1 ([3]; 200 μM, insitu, 231): 10.3
isoTOP-ABPP reactivity Q9NVC6_C649 MED17 ([4]; 200 μM, insitu, 231): 3.2
isoTOP-ABPP reactivity O95571_C170 ETHE1 ([5]; 200 μM, insitu, 231): 6.8

Compound: O=C(CCl)N1CCC(Cc2ccccc2)CC1 [compound 9]
isoTOP-ABPP reactivity Q7Z2W4_C645 ZC3HAV1 ([6]; 200 μM, insitu, 231): 3.0
isoTOP-ABPP reactivity O00299_C24 CLIC1 ([3]; 200 μM, insitu, 231): 3.0
isoTOP-ABPP reactivity Q9NVC6_C649 MED17 ([4]; 200 μM, insitu, 231): 2.2
isoTOP-ABPP reactivity O95571_C170 ETHE1 ([5]; 200 μM, insitu, 231): 2.0

Compound: O=C(CCl)N1CCN(S(=O)(=O)c2ccccc2F)CC1 [compound 10]
isoTOP-ABPP ratio P51946_C244 ([1]; 200 μM, insitu, 231): 1.7
isoTOP-ABPP ratio Q7Z2W4_C645 ([6]; 200 μM, insitu, 231): 3.8
isoTOP-ABPP ratio Q13428_C38 ([2]; 200 μM, insitu, 231): 4.2
isoTOP-ABPP ratio Q13428_C1298 ([2]; 200 μM, insitu, 231): 5.9
isoTOP-ABPP ratio O00299_C24 ([3]; 200 μM, insitu, 231): 5.0
isoTOP-ABPP ratio Q9NVC6_C649 ([4]; 200 μM, insitu, 231): 2.3
isoTOP-ABPP ratio Q9NVC6_C649 ([4]; 200 μM, insitu, ramos): 2.1
isoTOP-ABPP ratio O95571_C170 ([5]; 200 μM, insitu, 231): 9.0

The next lines start with the values.

isoTOP-ABPP ratio P51946_C244 ([1]; 100 μM in situ 231): 1.3
isoTOP-ABPP ratio Q7Z2W4_C645 ([6]; 100 μM in situ 231): 1.0
isoTOP-ABPP ratio Q13428_C38 ([2]; 100 μM in situ 231): 1.1
isoTOP-ABPP ratio Q13428_C1298 ([2]; 100 μM in situ 231): 0.8
isoTOP-ABPP ratio O00299_C24 ([3]; 100 μM in situ 231): 2.5
isoTOP-ABPP ratio Q9NVC6_C649 ([4]; 100 μM in situ 231): 0.8
isoTOP-ABPP ratio O95571_C170 ([5]; 100 μM in situ 231): 1.2
Compound: Cn1cc(S(=O)(=O)N2CCOCC2)cc1C(=O)NC(=O)CCl [compound 11]

isoTOP-ABPP ratio P51946_C244 ([1]; 200 μM, insitu, 231): 1.3
isoTOP-ABPP ratio Q7Z2W4_C645 ([6]; 200 μM, insitu, 231): 3.3
isoTOP-ABPP ratio Q13428_C38 ([2]; 200 μM, insitu, 231): 4.7
isoTOP-ABPP ratio Q13428_C1298 ([2]; 200 μM, insitu, 231): 20.0
isoTOP-ABPP ratio O00299_C24 ([3]; 200 μM, insitu, 231): 20.0
isoTOP-ABPP ratio Q9NVC6_C649 ([4]; 200 μM, insitu, 231): 4.0
isoTOP-ABPP ratio O95571_C170 ([5]; 200 μM, insitu, 231): 6.3
Compound: O=C(CCl)NC(=O)NC12CC3CC(CC(C3)C1)C2 [compound 12]

isoTOP-ABPP ratio P51946_C244 ([1]; 200 μM, insitu, 231): 1.0
isoTOP-ABPP ratio P51946_C244 ([1]; 200 μM, insitu, ramos): 1.2
isoTOP-ABPP ratio Q7Z2W4_C645 ([6]; 200 μM, insitu, 231): 1.3
isoTOP-ABPP ratio Q7Z2W4_C645 ([6]; 200 μM, insitu, ramos): 0.9
isoTOP-ABPP ratio Q13428_C38 ([2]; 200 μM, insitu, 231): 1.6
isoTOP-ABPP ratio O00299_C24 ([3]; 200 μM, insitu, ramos): 1.8
isoTOP-ABPP ratio Q9NVC6_C649 ([4]; 200 μM, insitu, 231): 1.1
isoTOP-ABPP ratio Q9NVC6_C649 ([4]; 200 μM, insitu, ramos): 1.0
isoTOP-ABPP ratio O95571_C170 ([5]; 200 μM, insitu, 231): 1.2
isoTOP-ABPP ratio O95571_C170 ([5]; 200 μM, insitu, ramos): 1.9
Compound: O=C(CCl)NCCc1c[nH]c2ccccc12 [compound 13]
